Entries after “also recorded” stand apart in the source; their conditions may differ.
Legend:
[1] = biological target: T1, CaV2.2 (Homo sapiens, UniProt Q00975); experiment: HVA N-type calcium channel FLIPR assay in SH-SY5Y cells; format: cell-based; settings: 10 µM nifedipine present, n = 3, read-out: IC50 CaV2.2 (HVA CaVs)
T1 construct: endogenous in cells; host or cells: SH-SY5Y human neuroblastoma cells
Description: (§1) The human embryonic kidney 293 (HEK 293) cell lines (from Emmanuel Bourinet, Montpellier, France) stably expressing CaV3.2 or CaV3.3 were cultured under 5% carbon dioxide at 37 °C in Dulbecco’s Modified Eagle Medium (DMEM) Glutamax (Gibco, Life Technologies, Carlsbad, CA, USA) supplemented with 10% (v/v) fetal bovine serum (FBS), 100 U/mL penicillin, 100 μg/mL streptomycin (Gibco, Life Technologies, Carlsbad, CA, USA), and 750 μg/mL geneticin (G418) (Gibco, Life Technologies). The Chinese Hamster Ovary (CHO) cell lines (Emmanuel Bourinet, Montpellier, France) expressing CaV3.1 were cultured under 5% carbon dioxide at 37 °C in Alpha Minimum Essential Media (MEM) Glutamax (Gibco, Life Technologies), supplemented with 10% (v/v) fetal bovine serum (FBS) and 300 μg/mL geneticin (G418) (Gibco, Life Technologies). The human neuroblastoma SH-SY5Y cells (Victor Diaz, Goettingen, Germany) were cultured under 5% carbon dioxide at 37 °C in RPMI 1640 antibiotic-free medium (Invitrogen, Carlsbad, CA, USA), supplemented with 15% FBS and 2 mM GlutaMAX™ (Invitrogen). D-PBS (Gibco, Life Technologies) was used to wash the cells, and 0.25% Trypsin-EDTA (Gibco, Life Technologies) was used to detach cells from the flask surface. They were split in a ratio of 1:5 (ideally 1000 cells/cm^2) when they reached 70–80% confluence (every 2–3 days). Transiently transfected CaV3.1 HEK293 T cells were used in FLIPR Assays. HEK 293 T cells were cultured under 5% carbon dioxide at 37 °C in DMEM supplemented with 10% (v/v) FBS. D-PBS was used to wash the cells, and 0.25% Trypsin-EDTA was used to detach cells from the flask surface. The cells were split and seeded at 6 million cells per T175 flask, to reach 70–80% confluence after 24 h. The next day, 12 μg DNA of human CaV3.1 was incubated in 900 μL serum-free DMEM with 36 μL FuGENE HD transfection reagent (Promega Corporation, Madison, WI, USA) (1:3 DNA/Fugene ratio) for 20 min, and then the mixture was added into the cell flask slowly, drop by drop. After the transfection, the cells were cultured under 5% carbon dioxide at 37 °C for 24 h and then moved to a 28 °C incubator.
SH-SY5Y cells were seeded into 384-well black wall clear bottom plates at a density of 15,000 cells per well, resulting in 90–95% confluence after 24 h. The media were then removed from the wells and replaced with 20 μL of 10% calcium 4 dye (Molecular Devices) in physiological salt solution (PSS) (containing 5.9 mM KCl, 1.4 mM MgCl2, 10 mM HEPES, 1.2 mM NaH2 PO4, 5 mM NaHCO3, 140 mM NaCl, 11.5 mM glucose, and 1.8 mM CaCl2, pH 7.4) with 0.1% BSA. As reported, for N-type calcium channel FLIPR assays the cells were pre-incubated with 10 µM nifedipine added in the dye to ensure full inhibition of L-type calcium responses. For L-type calcium channel FLIPR assays, the cells were pre-incubated with 1 µM CVID added in the dye to ensure full inhibition of N-type calcium responses. Positive control on the first reagent plate contained 15 μL of PSS (0.1% BSA), whereas PSS (0.1% BSA) containing 1 µM CVID and 10 µM nifedipine (final concentration) was used as a negative control. The fluorescence readings were recorded and converted as described previously, and agonist containing 90 mM KCl + 5 mM CaCl2 was used in the second addition.

[2] = biological target: T2, recombinant hCaV3.3 channels (Homo sapiens, UniProt Q9P0X4); experiment: Whole-cell patch-clamp (QPatch), CaV3.3; format: cell-based; settings: for extent of block of CaV3.3 whole-cell inward Ca2+ current: QPatch; for IC50: whole-cell current, holding potential −90 mV, n = 3–5
T2 construct: the only CaV3.3-expressing cells described
T2 sequence (Q9P0X4 whole entry): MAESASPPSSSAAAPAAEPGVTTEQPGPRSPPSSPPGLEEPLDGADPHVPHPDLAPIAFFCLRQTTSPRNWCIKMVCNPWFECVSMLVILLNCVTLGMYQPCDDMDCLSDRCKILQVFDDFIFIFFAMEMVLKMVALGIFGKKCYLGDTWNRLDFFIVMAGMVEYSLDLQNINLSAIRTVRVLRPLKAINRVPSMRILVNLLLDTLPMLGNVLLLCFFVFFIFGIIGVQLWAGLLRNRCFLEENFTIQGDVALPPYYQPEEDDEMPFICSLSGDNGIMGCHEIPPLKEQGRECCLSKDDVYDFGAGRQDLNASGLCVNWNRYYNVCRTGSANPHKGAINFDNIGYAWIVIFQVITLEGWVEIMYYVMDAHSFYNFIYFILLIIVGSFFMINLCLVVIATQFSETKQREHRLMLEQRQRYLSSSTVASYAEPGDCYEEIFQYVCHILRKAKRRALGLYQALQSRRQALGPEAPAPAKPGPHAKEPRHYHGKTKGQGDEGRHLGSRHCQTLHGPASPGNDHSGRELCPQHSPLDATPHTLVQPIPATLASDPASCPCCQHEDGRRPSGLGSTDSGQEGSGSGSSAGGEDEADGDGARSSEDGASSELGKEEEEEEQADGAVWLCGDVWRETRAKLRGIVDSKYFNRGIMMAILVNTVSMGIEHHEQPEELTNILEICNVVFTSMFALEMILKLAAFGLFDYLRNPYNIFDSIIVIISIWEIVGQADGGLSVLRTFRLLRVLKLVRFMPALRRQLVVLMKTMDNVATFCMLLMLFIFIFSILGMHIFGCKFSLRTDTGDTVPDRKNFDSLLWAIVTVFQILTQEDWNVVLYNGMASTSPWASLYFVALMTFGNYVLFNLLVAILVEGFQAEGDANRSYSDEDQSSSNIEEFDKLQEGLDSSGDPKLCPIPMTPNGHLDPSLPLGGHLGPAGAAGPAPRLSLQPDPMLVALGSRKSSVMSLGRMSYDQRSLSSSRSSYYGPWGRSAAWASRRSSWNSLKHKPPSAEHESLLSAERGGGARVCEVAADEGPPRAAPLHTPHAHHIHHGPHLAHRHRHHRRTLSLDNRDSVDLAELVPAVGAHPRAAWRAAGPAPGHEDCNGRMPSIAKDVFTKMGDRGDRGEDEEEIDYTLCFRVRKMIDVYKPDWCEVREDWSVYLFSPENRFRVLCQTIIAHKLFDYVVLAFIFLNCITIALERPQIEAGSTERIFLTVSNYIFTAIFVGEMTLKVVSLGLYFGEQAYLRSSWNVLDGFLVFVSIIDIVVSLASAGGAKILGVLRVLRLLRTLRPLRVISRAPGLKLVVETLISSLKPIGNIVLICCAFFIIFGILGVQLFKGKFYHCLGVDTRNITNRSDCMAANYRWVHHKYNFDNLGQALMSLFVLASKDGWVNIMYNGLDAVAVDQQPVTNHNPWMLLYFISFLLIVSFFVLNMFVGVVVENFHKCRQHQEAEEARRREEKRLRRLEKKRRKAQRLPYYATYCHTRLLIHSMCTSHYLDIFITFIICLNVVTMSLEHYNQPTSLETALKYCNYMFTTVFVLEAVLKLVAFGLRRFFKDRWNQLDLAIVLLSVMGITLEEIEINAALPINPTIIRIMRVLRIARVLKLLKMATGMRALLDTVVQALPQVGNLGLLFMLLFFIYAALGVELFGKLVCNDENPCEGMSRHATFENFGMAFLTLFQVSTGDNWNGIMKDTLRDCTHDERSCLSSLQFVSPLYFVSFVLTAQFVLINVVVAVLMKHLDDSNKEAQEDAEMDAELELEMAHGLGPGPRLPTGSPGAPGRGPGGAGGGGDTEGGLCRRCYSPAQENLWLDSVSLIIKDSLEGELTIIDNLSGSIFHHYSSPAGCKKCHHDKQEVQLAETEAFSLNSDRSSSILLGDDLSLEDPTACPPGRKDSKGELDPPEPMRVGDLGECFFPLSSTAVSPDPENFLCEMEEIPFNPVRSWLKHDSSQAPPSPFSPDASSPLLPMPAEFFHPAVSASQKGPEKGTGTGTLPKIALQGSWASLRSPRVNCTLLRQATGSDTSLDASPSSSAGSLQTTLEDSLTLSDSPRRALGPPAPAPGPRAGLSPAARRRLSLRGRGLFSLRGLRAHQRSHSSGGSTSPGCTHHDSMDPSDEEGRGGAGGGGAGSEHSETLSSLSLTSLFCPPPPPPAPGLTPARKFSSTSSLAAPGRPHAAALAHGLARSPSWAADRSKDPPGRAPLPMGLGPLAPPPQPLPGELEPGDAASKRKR
Description: as §1
Whole-cell patch-clamp experiments were performed on an automated electrophysiology platform QPatch 16 X (Sophion Bioscience A/S, Ballerup, Denmark) in single-hole configuration using 16-channel planar patch chip QPlates (Sophion Bioscience A/S). The extracellular recording solution contained, in mM: TEACl 157, MgCl2 0.5, CaCl2 5, and HEPES 10; pH 7.4 adjusted with TEAOH; and osmolarity 320 mOsm. The intracellular pipette solution contained, in mM: CsF 140, EGTA 1, HEPES 10, and NaCl 10; pH 7.2 adjusted with CsOH; and osmolarity 325 mOsm. Compounds were diluted in extracellular recording solution with 0.1% BSA at the concentrations stated (DMSO ≤ 0.1%), and the effects of compounds were compared to the control (extracellular solution with 0.1% BSA) parameters within the same cell. Compounds’ incubation time varied from two (for the highest concentration) to five (for the lowest concentration) minutes by applying the voltage protocol 10–30 times at 10 s intervals to ensure steady-state inhibition was achieved. The effects of compounds were obtained using 200 ms voltage steps to peak potential from a holding potential of −90 mV. Current–voltage (I–V) relationships were obtained by holding the cells at a potential of −100 mV before applying 50 ms pulses to potentials from −75 to +50 mV every 5 s in 5 mV increments. […]

[3] = tested on: T-47D cells; experiment: Cell viability MTT assay, T-47D; format: cell-based, human; settings: for viability at 50 µM: n = 4; for IC50: n = 3
Description: Human breast cancer cell line MCF-7 and T-47D, lung cancer cell line A549, and colon cancer cell line HT-29 were cultured under 5% carbon dioxide at 37 °C in DMEM Glutamax (Gibco, Life Technologies) supplemented with 10% (v/v) FBS. They were split in a ratio of 1:3–1:6 (ideally 2–4 × 10,000 cells/cm^2) when they reached 70–80% confluence using 0.25% Trypsin-EDTA. For cell viability MTT assay, cells were seeded into 96-well clear bottom culture plates (Corning, Lowell, MA, USA) at a density of 5 × 10^3 cells/well and settled at 37 °C for 24 h.
Seeded cells were treated with various concentrations of compounds for desired time period (24, 48 and 72 h). After the treatments, the media were removed from each well, and replaced with 25 μL of serum-free media and 25 μL of MTT Reagent (cat. no., ab211091; Abcam, Cambridge, MA, USA). The plate was then incubated at 37 °C for 3 h, and 75 μL of MTT Solvent (cat. no., ab211091; Abcam) was added into each well after incubation. The absorbance was evaluated at 590 nm. Cell-wells treated with 0.1% DMSO were used as positive control and no cell-wells were used as background control.

[4] = Homo sapiens, T47D, 72 h treatment
[5] = Homo sapiens, T47D, 72 h, 72 h treatment

Row | SMILES | IC50 [1] | extent of block of CaV3.3 whole-cell inward Ca2+ current [2] | IC50 [2] | viability at 50 µM [3, 4] | IC50 [3, 5] | IC50 ([3]; 72 h treatment) | IC50 ([3]; Homo sapiens, T47D, 24 h, 24 h treatment) | IC50 ([3]; Homo sapiens, T47D, 48 h, 48 h treatment)
1 | O=C(c1cn(Cc2ccccc2)c2ccccc12)c1cn(Cc2ccccc2)c2ccccc12 [IX, bis(1-benzyl-1H-indol-3-yl)methanone] | 82 ± 5.3 µM | partially blocked; also recorded: only partial inhibition | 2.09 ± 0.69 µM | – | – | – | – | –
2 | O=C(c1c[nH]c2ccccc12)c1c[nH]c2ccccc12 [DIM-one, 3,3′-diindolylmethanone] | 119 ± 6.51 µM | poor inhibition | > 50 µM | 50.6 ± 2.08% | 44 µM | – | – | –
3 | c1ccc2c(Cc3c[nH]c4ccccc34)c[nH]c2c1 [DIM, 3,3′-diindolylmethane, reference compound] | 56.7 ± 2.61 µM | – | 9.63 ± 0.97 µM | 18.9 ± 1.15% | 36 µM | – | – | –
4 | O=C(c1c[nH]c2cc(Br)ccc12)c1c[nH]c2cc(Br)ccc12 [IV] | > 200 µM | – | – | 6.14 ± 0.55% | 4 µM | 4.1 µM | 13.8 µM | 3.9 µM

From publication PMC9412534, “Diindolylmethane Derivatives: New Selective Blockers for T-Type Calcium Channels” (Membranes, 2022)
